In brackets after ≈: the same amount, converted by molar mass. Like-named read-outs stand apart in the source and are kept apart here.
Key:
VZV = VZV antiviral assay: plaque reduction in WI-38 cell culture monolayers; format: cell-based, varicella zoster virus, strain ELLEN; conditions: Human alphaherpesvirus 3, 156 h; WI-38 cells; at least 50% plaque reduction vs virus controls; 6-7 days at 37° C.; read-out: ID50 VZV
Description: (§1) Assays were performed in cell culture systems to determine the concentrations of compounds that are effective in preventing several kinds of viral infections.
(§2) HSV-1 (herpes simplex virus type 1, strain Schooler), HSV-2 (herpes simplex virus type 2, strain 186), VZV (varicella zoster virus, strain ELLEN).
(§3) HSV-1, HSV-2, and VZV antiviral assays: Virus was adsorbed to WI-38 cell culture monolayers in 6 well culture plates (Costar, Cambridge, Mass.) for 1 hour prior to addition of maintenance medium containing duplicate dilutions of the test compound. Inhibition of plaque development was evaluated on fixed and stained monolayers after 4 days incubation at 37° C. for HSV-1 and HSV-2 and after 6-7 days incubation at 37° C. for VZV. ID50 values were determined from the drug concentration which conferred at least a 50% plaque reduction compared to virus controls (Table 1).

HSV-2 = HSV-2 antiviral assay: plaque reduction in WI-38 cell culture monolayers; format: cell-based, herpes simplex virus type 2, strain 186; conditions: read-out: ID50 HSV-2
Description: as §1, §2, §3

HSV-1 = HSV-1 antiviral assay: plaque reduction in WI-38 cell culture monolayers; format: cell-based, herpes simplex virus type 1, strain Schooler; conditions: read-out: ID50 HSV-1
Description: as §1, §2, §3

[1] = Human alphaherpesvirus 2, 96 h, WI-38 cells, at least 50% plaque reduction vs virus controls, 4 days at 37° C.
[2] = Human alphaherpesvirus 1, 96 h, WI-38 cells, at least 50% plaque reduction vs virus controls, 4 days at 37° C.

| SMILES | IC50 (VZV) [µg/mL] | IC50 (HSV-2; [1]) [µg/mL] | IC50 (HSV-1; [2]) [µg/mL] | IC50 (HSV-2; Human alphaherpesvirus 2, WI-38, 96 h) [µg/mL] | IC50 (HSV-1; Human alphaherpesvirus 1, WI-38, 96 h) [µg/mL] |
| --- | --- | --- | --- | --- | --- |
| Cc1cn([C@@H]2CO[C@H](CO)[C@H]2O)c(=O)[nH]c1=O [[3R-(3α,4β,5α)]-5-Methyl-1-[tetrahydro-4-hydroxy-5-(hydroxymethyl)-3-furanyl]2,4(1H,3H)pyrimidinedione] | > 100 | > 100 | 10 (≈ 41.3 µM) |  |  |
| Nc1ccn([C@@H]2CO[C@H](CO)[C@H]2O)c(=O)n1 [[3R-(3α,4β,5α)]-4-Amino-1-[tetrahydro-4-hydroxy-5-(hydroxymethyl)-3-furanyl]-2(1H)-pyrimidinone] | 25 to 50 (≈ 110 to 220 µM) |  |  | > 100 | > 100 |
| Nc1nc2c(ncn2[C@@H]2CO[C@H](CO)[C@H]2O)c(=O)[nH]1 | 50 to 100 (≈ 187 to 374 µM) | 2 (≈ 7.48 µM) | 2 to 5 (≈ 7.48 to 18.7 µM) |  |  |

— patent US5272152A, “Purinyl and pyrimidinyl tetrahydrofurans” (priority 1991, dated 1993)
